These results are taken from patent US10093611B2, “Benzocycloalkenes as antifungal agents” (Bayer Intellectual Property GmbH, priority 2010, dated 2018).

The nature of series [1]: log P by HPLC on reversed-phase column (C 18), EEC Directive 79/831 Annex V.A8. The format is physicochemical. The following applies: C 18 reversed phase, 40° C., 0.1% aqueous formic acid and acetonitrile gradient. The method, then: In table 1, the log P values were determined in accordance with EEC Directive 79/831 Annex V.A8 by HPLC (High Performance Liquid Chromatography) on a reversed-phase column (C 18), using the method described below: Temperature: 40° C.; Mobile phases: 0.1% aqueous formic acid and acetonitrile; linear gradient from 10% acetonitrile to 90% acetonitrile. Calibration was carried out using unbranched alkan-2-ones (comprising 3 to 16 carbon atoms) with known log P values (determination of the log P values by the retention times using linear interpolation between two successive alkanones). lambda-max-values were determined using UV-spectra from 200 nm to 400 nm and the peak values of the chromatographic signals.

For another series, the system named is Alternaria solani. Kind of series: In vivo preventive test on Alternaria solani (tomato). The note with it: 500 ppm of active ingredient, evaluated 7 days after inoculation. The method, then:
EXAMPLE A: IN VIVO PREVENTIVE TEST ON ALTERNARIA SOLANI (TOMATO) Solvent: 49 parts by weight of N,N-dimethylformamide Emulsifier: 1 part by weight of Alkylarylpolyglycolether To produce a suitable preparation of active compound, 1 part by weight of active compound is mixed with the stated amounts of solvent and emulsifier, and the concentrate is diluted with water to the desired concentration. To test for preventive activity, young plants are sprayed with the preparation of active compound at the stated rate of application. One day after this treatment, the plants are inoculated with an aqueous spore suspension of Alternaria solani. The plants remain for one day in an incubation cabinet at approximately 22° C. and a relative atmospheric humidity of 100%. Then the plants are placed in an incubation cabinet at approximately 20° C. and a relative atmospheric humidity of 96%. The test is evaluated 7 days after the inoculation. 0% means an efficacy which corresponds to that of the control while an efficacy of 100% means that no disease is observed. Under these conditions, good (at least 80%) to total protection is observed at a dose of 500 ppm of active ingredient with the following compounds from table A: […]

In another series the test system is Leptosphaeria nodorum. The series can be described thus: In vivo preventive test on Leptosphaeria nodorum (wheat). The note with it: 500 ppm of active ingredient, evaluated 8 days after inoculation. How it is done: EXAMPLE D: IN VIVO PREVENTIVE TEST ON LEPTOSPHAERIA NODORUM (WHEAT) Solvent: 49 parts by weight of N,N-dimethylacetamide Emulsifier: 1 part by weight of alkylaryl polyglycol ether To produce a suitable preparation of active compound, 1 part by weight of active compound or the compound combination is mixed with the stated amounts of solvent and emulsifier, and the concentrate is diluted with water to the desired concentration. To test for protective activity, young plants are sprayed with a preparation of active compound or active compound combination at the stated rate of application. After the spray coating has dried on, the plants are sprayed with a spore suspension of Leptosphaeria nodorum. The plants remain for 48 hours in an incubation cabinet at 20° C. and a relative atmospheric humidity of 100%. The plants are placed in a greenhouse at a temperature of approximately 22° C. and a relative atmospheric humidity of approximately 80%. The test is evaluated 8 days after the inoculation. 0% means an efficacy which corresponds to that of the control, while an efficacy of 100% means that no disease is observed. Under these conditions, good (at least 75%) to total protection is observed at a dose of 500 ppm of active ingredient with the following compounds from table D: Under the same conditions, excellent protection (greater than 94%) is observed at a dose of 500 ppm of active ingredient with compound 2, whereas poor protection (less than 30%) is observed with the isosteric analogue compound CMP1 claimed in WO-2009/016218 as in table D2.

Another series concerns Pyrenophora teres. The series can be described thus: In vivo preventive test on Pyrenophora teres (barley). The note with it: 500 ppm of active ingredient, evaluated 7-9 days after inoculation. The method, then: EXAMPLE F: IN VIVO PREVENTIVE TEST ON PYRENOPHORA TERES (BARLEY) Solvent: 49 parts by weight of N,N-dimethylformamide Emulsifier: 1 part by weight of Alkylarylpolyglycolether To produce a suitable preparation of active compound, 1 part by weight of active compound is mixed with the stated amounts of solvent and emulsifier, and the concentrate is diluted with water to the desired concentration. To test for preventive activity, young plants are sprayed with the preparation of active compound at the stated rate of application. One day after this treatment, the plants are inoculated with an aqueous spore suspension of Pyrenophora teres. The plants remain for 48 hours in an incubation cabinet at 22° C. and a relative atmospheric humidity of 100%. Then the plants are placed in a greenhouse at a temperature of approximately 20° C. and a relative atmospheric humidity of approximately 80%. The test is evaluated 7-9 days after the inoculation. 0% means an efficacy which corresponds to that of the untreated control while an efficacy of 100% means that no disease is observed. Under these conditions, high (at least 90%) to total protection is observed at a dose of 500 ppm of active ingredient with the following compounds from table F: […]

Another series has as its system Sphaerotheca fuliginea. Kind of series: In vivo preventive test on Sphaerotheca fuliginea (cucumbers). The following applies: 500 ppm of active ingredient, evaluated 7 days after inoculation. The method, then:
EXAMPLE H: IN VIVO PREVENTIVE TEST ON SPHAEROTHECA FULIGINEA (CUCUMBERS) Solvent: 24.5 parts by weight of acetone • 24.5 parts by weight of N,N-dimethylacetamide Emulsifier: 1 part by weight of alkylaryl polyglycol ether To produce a suitable preparation of active compound, 1 part by weight of active compound is mixed with the stated amounts of solvent and emulsifier, and the concentrate is diluted with water to the desired concentration. To test for protect activity, young plants are sprayed with the preparation of active compound at the stated rate of application. After the spray coating has dried on, the plants are inoculated with an aqueous spore suspension of Sphaerotheca fuliginea. The plants are then placed in a greenhouse at approximately 23° C. and a relative atmospheric humidity of approximately 70%. The test is evaluated 7 days after the inoculation. 0% means an efficacy which corresponds to that of the untreated control, while an efficacy of 100% means that no disease is observed. Under these conditions, high (at least 90%) to total protection is observed at a dose of 100 ppm of active ingredient with the following compounds from table H: Under the same conditions, high protection (greater than 80%) is observed at a dose of 500 ppm of active ingredient with compound 7, whereas poor protection (less than 20%) is observed with the isosteric analogue compound CMP2 claimed in WO-2009/016218 as in table H2.

As a reminder, the logP is the decadic logarithm of the partition coefficient of the neutral form, usually between octanol and water. A low value points to lower lipophilicity. In series [1], `Cn1nc(C(F)F)c(C(=O)N(C2CC2)C2Cc3ccccc3C2)c1Cl` [Example 1] showed a log partition coefficient (logP) of 3.35. For the same molecule, the Efficacy in the series with Alternaria solani is 89%.

For `Cn1nc(C(F)F)c(C(=O)N(C2CC2)C2Cc3ccccc3C2)c1F` [Example 2], the logP in series [1] came out at 3.19. Besides, the Efficacy was 94% with Alternaria solani, 94% in the series with Leptosphaeria nodorum and “greater than 94%” in the series on Leptosphaeria nodorum (listed as compound 2).

Take `Cc1cc(C(=O)N(C2CC2)C2CCc3ccccc3C2)c(C)o1` (stereo not drawn) [Example 3]: in series [1], the lipophilicity (logP) is recorded as 4.01.

The molecule `Cc1nn(C)c(F)c1C(=O)N(C1CC1)C1CCc2ccccc2C1` (stereo not drawn) [Example 4] displayed a logP in series [1] of 3.00. In the series on Pyrenophora teres, this molecule yielded an Efficacy of 90%.

Take `CCc1nn(C)c(F)c1C(=O)N(C1CC1)C1CCc2ccccc2C1` (stereo not drawn) [Example 5]: the logP in series [1] came out at 3.35. The results for the Efficacy with Alternaria solani, in the series with Leptosphaeria nodorum and in the series with Pyrenophora teres were 95%, 78% and 95%, respectively.

The molecule `Cn1cc(C(=O)N(C2CC2)C2CCc3ccccc3C2)c(C(F)F)n1` (stereo not drawn) [Example 6] displayed a log partition coefficient (logP) in series [1] of 3.08. The results for the Efficacy in the series with Alternaria solani and with Pyrenophora teres were 95% and 100%, respectively.

In turn, `Cn1nc(C(F)F)c(C(=O)N(C2CC2)C2CCc3ccccc3C2)c1F` (stereo not drawn) [Example 7] displayed a logP in series [1] of 3.48. Besides, the Efficacy is recorded as 100% in the series on Alternaria solani; 94% with Leptosphaeria nodorum; 100% with Pyrenophora teres; 80% in the series on Sphaerotheca fuliginea; “greater than 80%” in the series on Sphaerotheca fuliginea (listed as compound 7).

As for `Cn1cc(C(=S)N(C2CC2)C2CCc3ccccc3C2)c(C(F)F)n1` (stereo not drawn) [Example 8], the logP in series [1] is reported as 3.73. Also, the Efficacy with Pyrenophora teres turned out to be 95%.

`Cn1nc(C(F)F)c(C(=S)N(C2CC2)C2CCc3ccccc3C2)c1F` (stereo not drawn) [Example 9] had a lipophilicity (logP) in series [1] of 4.21. The Efficacy was determined as 93% in the series with Alternaria solani and 100% with Pyrenophora teres.

For `Cc1cc(C(=O)N(C2CC2)C(C)C2Cc3ccccc3C2)c(C)o1` (stereo not drawn) [Example 10], the logP in series [1] is on record as 4.34. Moreover, the Efficacy is given as 95% with Alternaria solani and 90% with Pyrenophora teres.

For the molecule `CC(C1CCc2ccccc2C1)N(C(=O)c1ccsc1I)C1CC1` (stereo not drawn) [Example 15], the lipophilicity (logP) in series [1] is reported as 4.82.

In series [1], `Cn1cc(C(=O)N(CC2Cc3ccccc3O2)C2CC2)c(C(F)F)n1` (stereo not drawn) [Example 18] had a logP of 2.54. Further, the Efficacy with Pyrenophora teres amounted to 95%.

`Cn1nc(C(F)F)c(C(=O)N(CC2Cc3ccccc3O2)C2CC2)c1F` (stereo not drawn) [Example 19]: the logP in series [1] is 2.86. In the series with Pyrenophora teres, this molecule gave an Efficacy of 100%.

In series [1], `Cn1nc(C(F)F)c(C(=O)N(CC2COc3ccccc3C2)C2CC2)c1F` (stereo not drawn) [Example 20] showed a log partition coefficient (logP) of 3.00. Further, the Efficacy is reported as 80% in the series with Alternaria solani and 100% with Pyrenophora teres.

Take `Cn1nc(C(F)F)c(C(=O)N(CC2Cc3ccccc3O2)C2CC2)c1Cl` (stereo not drawn) [Example 21]: the logP in series [1] is reported as 3.04.
